Literature values, collected in patent publication US20190038750A1, “TRIPLE ANTIBIOTIC CATIONIC OINTMENT” (priority 2017, published 2019).

Assays:
[1] = system: bacteria; conditions: very low concentrations
[2] = system: fungus
[3] = in vivo
[4] = system: Pseudomonas aeruginosa
[5] = system: Staphylococcus aureus (also the methicillin-resistant type, MRSA)
[6] = system: Escherichia coli
[7] = system: Candida albicans (yeast)
[8] = system: Aspergillus brasiliensis (mold)
[9] = system: vancomycin-resistant enterococci
[10] = system: Klebsiella pneumoniae (carbapenem-resistant enterobacteriaceae)

For Polyaminopropylbiguanide [PAPB], the bactericidal concentration [1] is listed as 10 mg/1 and the fungicidal [2] is listed as “fungicidal”.
In the case of benzalkonium chloride, the burning sensation [3] is given as “does not cause a burning sensation”.
In the case of polyhexamethylenebiguanide [PHMB], the “effective against Pseudomonas aeruginosa” value [4] is given as “effective”, the “effective against Staphylococcus aureus (also MRSA)” value [5] is given as “effective” and the “effective against Escherichia coli” value [6] is given as “effective”. The “effective against Candida albicans” value [7] was “effective”, the “effective against Aspergillus brasiliensis” value [8] was “effective” and the “effective against vancomycin-resistant enterococci” value [9] was “effective”. The “effective against Klebsiella pneumoniae (carbapenem-resistant)” value [10] was “effective”.
